Experimental findings from paper PMC9510126, “Hydrophobicity is a key determinant in the activity of arginine-rich cell penetrating peptides” (Scientific Reports, 2022) are described below.

Ends that are not written are not given here. * marks the point of attachment. carboxyfluorescein = carboxyfluorescein fluorophore coupled to the lysine ε-amine; DEAC = CCN(CC)c1ccc2cc(C(=O)*)c(=O)oc2c1

Data set [1] is described as follows: RP-18 TLC hydrophobicity (1-Rf) of Ac-X-NH2 analogs. Conditions: RP18 TLC, 40% acetonitrile / 60% PBS (10 mM phosphate buffer), pH 4 vs pH 8. The format is physicochemical. The procedure:
In order to assess the hydrophobicity contributed by each X group, the peptides were first analyzed by reverse phase HPLC using a C18 column, using gradients of buffer A (water/TFA 99.9:0.1) and buffer B (acetonitrile/water/TFA 89.9:10:0.1 v:v:v) (gradient of 0–40% B over 20 min). […] All d(X)TAT peptides eluted over a range of 10–35% acetonitrile. […] One caveat of this approach is that the buffer system used for peptide analysis is pH 2 (due to the presence of TFA, required to protonate residue side chains). However, pH 2 is not representative of the pH that CPPs may be exposed to when in contact with cells, either pH 7.2 outside the plasma membrane, or pH between 6.5 and 4.5 while inside acidic endosomes. In order to establish the relative hydrophobicities of d(X)TAT peptides at these pHs, we sought to use other techniques, including thin layer chromatography using C18, aluminum oxide or silica stationary phases. Unfortunately, the arginine-rich peptides could not be separated on these systems. To solve this problem, each individual X group was synthesized, using acetylated and amidated N and C-terminal positions to mimic the peptide backbone found in the d(X)TAT constructs (Fig. 1A, Figure S11). Each Ac-X-NH2 group was analyzed by HPLC and by RP18 TLC, using 40% acetonitrile and 60% PBS as mobile phase. The HPLC elutions of Ac-X-NH2 correlated with the HPLC elutions of their respective d(X)TAT counterparts (Fig. 1C). Similarly, the relative hydrophobicities of Ac-X-NH2 determined by TLC (measured as 1-Rf) at pH 4 or 8 were in good agreement with the results obtained by HPLC (Fig. 1D). […] In the case of DEAC, the protonation state of the fluorophore has, to our knowledge, not been characterized.
Hydrophobic substituents (10 µL) were developed on aluminum-backed F254 RP-18 TLC plates (EMD Millipore). Plates were cut into 6 cm × 6 cm squares and developed in 40% acetonitrile/60% 10 mM phosphate buffer first along one axis at pH 2.0, then along the second axis at pH 7.4. Peptide substituents that could not be easily identified under long-wave UV light were stained with iodine for 10–20 min. Retention factors (Rf) were calculated based on the distance traveled by each compound between the starting spotted location and the final solvent front location.

Data set [2] relates to MDA-MB-231 cells. The data set is described as follows: Staining of endosomes with LysoTracker (puncta per cell). The format is cell-based, human. Conditions: for lysotracker stained puncta, control agents: MDA-MB-231, LLOME 1 mM 10 min, bafilomycin 1 µM 4 h; for lysotracker-positive puncta per cell 12 h after incubation: MDA-MB-231, 1 h with peptide 1.5 μM, then 12 h in DMEM; for lysotracker stained endosomes (puncta per cell) immediately after incubation: MDA-MB-231, 1 h with peptide (X = K(Ac), WW, FFLIP at 10, 1.5, 1.5 μM), LysoTracker Green DND-26 500 nM 5 min, biological triplicates. As for the experimental part:
Given that hydrophobicity of the d(X)TAT peptides appears to contribute to their membrane permeation activities, we next sought to establish whether this relationship could be recapitulated with membrane models, i.e. lipid bilayers. To establish which membrane system to test, we first aimed to test whether d(X)TAT peptides generally recapitulate the mechanism of cell entry previously determined with dfTAT. For this purpose, the delivery of TMR-k5 was performed in cells transfected with dominant-negative (DN) rab7(T22N), a protein that disrupts trafficking from early endosomes to late endosomes[29],[30]. For these experiments, d(WW)TAT and d(FFLIP)TAT were chosen as two “high activity/hydrophobicity” d(X)TAT representatives. […] In this case, approximately 5% of cells remained positive for TMR-k5 nuclear staining. […] To further probe the cell penetration mechanism, the number of endosomal organelles stained by Lysotracker in cells before and after delivery was quantified. The rationale behind this assay is that lysotracker accumulates in acidified organelles, typically late endosomes and lysosomes, that endosomal membrane leakage causes an increase of endosomal pH (presumably via leakage of luminal H^+ into the cytosol), and that, consequently, endosomes rendered potentially leaky by d(X)TAT peptides will not be stained by lysotracker.
For the quantification of acidic vesicles, cells were treated with LysoTracker Green DND-26 (500 nM) for 5 min. Alternatively, cells were pretreated with L-Leu-L-Leu methyl ester (LLOME; Sigma-Aldrich) incubated at 1 mM for 10 min, or bafilomycin (Sigma-Aldrich) at 1 µM for 4 h, and then stained with LysoTracker. Likewise, cells were pretreated with d(X)TAT peptides (X = K(Ac), WW, or FFLIP at 10, 1.5, and 1.5 μM) for 1 h. Cells were then washed an stained with LysoTracker immediately or after 12 h incubation in DMEM. For all conditions, fluorescence microscopy images were acquired using the 100× objective on an Olympus IX-81 microscope. ImageJ was used to calculate the number of LysoTracker-stained puncta per cell, as well as the area of each individual puncta. This analysis was performed for 50 cells imaged for each condition and reproduced in biological triplicates.

Data set [3] concerns MDA-MB-231 cells. The data set is described as follows: Delivery of TMR-k5 probe into live cells (nuclear staining). The format is cell-based, human. Conditions: 1 h, biological triplicates; for TMR-k5 delivery activity (cells with TMR-k5 nuclear staining): MDA-MB-231, d(X)TAT at various concentrations + TMR-k5 20 μM, fluorescence microscopy; for d(X)TAT concentration at which delivery is achieved in a high percentage of cells: MDA-MB-231, TMR-k5 20 μM. An excerpt: To test the relative delivery efficiency of the d(X)TAT peptides, the cell lines MDA-MB-231 (epithelial-like, human breast cancer, spindle-shaped) and Neuro-2a (mouse neuroblastoma with neuronal and amoeboid stem cell morphology) were chosen. These cell lines are routinely used in cancer research, neuroscience, and toxicology. In the context of this study, we rationalized that the distinct differences in origin and characteristics between MDA-MB-231 and Neuro-2a properties may be useful to assess the generality of the results obtained. MDA-MB-231 or Neuro-2a cells were incubated with d(X)TAT peptides at various concentrations and TMR-k5 (20 μM) for 1 h. Cells were then washed, incubated with the DNA stain Hoechst and the live/dead marker SYTOX green (or SYTOX blue), and imaged by fluorescence microscopy. The localization of TMR-k5 in individual nuclei was then assessed by measuring the overlap between TMR and Hoechst signals (Fig. 2, Figure S13). […] This is because, in our experience, dfTAT and dfTAT analogs display a threshold behavior where, below a certain endosomal concentration, endosomal leakage is not achieved. In contrast above this threshold most late endosomes are permeabilized. […] Our rationale was therefore to titrate cells with different concentrations of d(X)TAT agents, monitor how many cells display cytosolic/nuclear delivery of TMR-k5, and compare the different d(X)TAT peptides.
MDA-MB-231 and Neuro2a cells obtained from ATCC (breast cancer-derived epithelial) were cultured in humidified atmosphere at 5% CO2 and 37 °C. Cells were seeded in plastic 48-well plates (Fisher) for quantitative analysis or 8-well Labtek II plates (Fisher) for qualitative imaging at 100× magnification. The cells were grown to 80–90% confluency in a 37 °C humidified atmosphere containing 5% CO2. Cells were washed three times with Leibovitz’s L15 media (L15) (Fisher). Cells were then incubated with peptide and 20 µM of the TMR-k5 pentalysine probe at 37 °C for 1 h. This was followed by washing the cells three times with L15 supplemented with heparin (Sigma-Aldrich) (1 mg/mL) and an extra L15 wash. […] Additionally, the cell permeable dye Hoechst 33342 (Thermo Fisher Scientific o) was used for nuclear staining. Cells were imaged using an EVOS FL Auto 2 inverted microscope (Thermo Fisher Scientific). The microscope is equipped with a heating chamber maintained at 37 °C. Images were acquired using bright field imaging and five fluorescence filter sets: CFP (Ex = 436 ± 10 nm, Em = 480 ± 20 nm), RFP (Ex = 560 ± 20 nm, Em = 630 ± 35 nm), FITC (Ex = 488 ± 10 nm Em = 520 ± 20 nm), DAPI (Ex = 350 ± 50 nm, Em = 460 ± 25 nm), […]. For image viewing and processing individual images, the Celleste 4.0 software (Thermo Fisher Scientific) was used. Nuclear regions in 20× images where identified using Hoechst staining (the quantification process is described in Figure S13). The intensity of these objects in the TMR channel was then determined using the Celleste software. Cells stained by the SYTOX or DRAQ dyes were considered dead and not counted as positive for delivery. Cells displaying a nuclear TMR-k5 fluorescence above the fluorescence threshold determined for TMR-k5 alone were considered positive for delivery (if excluding SYTOX or DRAQ7 stain, and if visually showing stained nucleoli for confirmation of intracellular localization). The percentage of cells positive for TMR-k5 nuclear staining was then calculated, using Hoechst-stained cells to count the total number of cells present. […] Instead, this assay quantifies the number of cells in which the nuclear fluorescence of TMR-k5 is above a detection threshold. This threshold is dependent on the microscope, imaging conditions, and the concentration of TMR-k5 used during incubation (Figure S13). The reproducibility of all the experiments was assessed by performing experiments with independent batches of cell cultures on three different days (i.e., biological triplicates). […]

Data set [4] deals with Neuro-2a cells. The data set can be described thus: Delivery inhibition with dominant negative rab7 or CytoD. Conditions: for cells with TMR-k5 delivery, EGFP-DN-rab7 transfected / nuclear staining of delivered TMR-k5 in cells transfected with EGFP-DN-rab7: Neuro-2a (Fig. 4A), TMR-k5 20 μM, 1 h; for nuclear staining of delivered TMR-k5 in cells transfected with EGFP-DN-rab7: biological triplicates; for cells positive for TMR-k5 nuclear staining in the presence of cytochalasin D / delivery of TMR-k5 in the presence of cytochalasin D: cytoD 20 μM, 30 min pre-incubation and present during 1 h delivery. The format is cell-based, mouse.

For the molecule `CC(=O)N[C@@H](Cc1ccccc1)C(N)=O` [Ac-F-NH2], the “pH dependence of TLC retention (1-Rf)” value in data set [1] is “independent of pH”. In the case of `CCN(CC)c1ccc2cc(C(=O)NCCCCC(NC(C)=O)C(N)=O)c(=O)oc2c1` (stereo not shown) [Ac-K(DEAC)-NH2], the “pH dependence of TLC retention (1-Rf)” value in data set [1] is “higher hydrophobicity at pH 4 than at pH 8”.

For `COC(=O)[C@H](CC(C)C)NC(=O)[C@@H](N)CC(C)C` [LLOME, L-Leucine-L-Leucine methyl ester, reference compound], in data set [2], the “lysotracker stained puncta, control agents” value is given as “reduced the number of lysotracker stained puncta”. Regarding `CO/C1=C\C(C)=C\[C@@H](C)[C@@H](O)[C@@H](C)C/C(C)=C/C=C/[C@H](OC)[C@@H]([C@@H](C)[C@@H](O)[C@H](C)[C@@]2(O)C[C@@H](O)[C@H](C)[C@@H](C(C)C)O2)OC1=O` [bafilomycin, reference compound], the “lysotracker stained puncta, control agents” value in data set [2] was “reduced the number of lysotracker stained puncta”.

As for “d(F)TAT: disulfide dimer of CXRKKRRQRRRG with X = F (CFRKKRRQRRRG-NH2; also: disulfide dimer)”, the “TMR-k5 delivery activity (cells with TMR-k5 nuclear staining)” value (shortened to “TMR-k5 delivery activity”) in data set [3] is on record as “little to no TMR-k5 delivery is detected”. Take “d(FFLIP)TAT: disulfide dimer of CXRKKRRQRRRG with X = FFLIP (penetration accelerating sequence, Pas)”: the “d(X)TAT concentration at which delivery is achieved in a high percentage of cells” value in data set [3] was < 3 µM. Moreover, in data set [2], the “lysotracker-positive puncta per cell 12 h after incubation” value was “restored to control level” and the “lysotracker stained endosomes (puncta per cell) immediately after incubation” value is “caused a reduction in lysotracker stained endosomes”. For the same molecule, in data set [4], the “cells with TMR-k5 delivery, EGFP-DN-rab7 transfected” value was 20%; the “nuclear staining of delivered TMR-k5 in cells transfected with EGFP-DN-rab7” value is “markedly reduced”; the “cells positive for TMR-k5 nuclear staining in the presence of cytochalasin D” value is recorded as “approximately 5%”; the “delivery of TMR-k5 in the presence of cytochalasin D” value is recorded as “significantly reduced”. Take “d(K(DEAC))TAT: disulfide dimer of CXRKKRRQRRRG with X = lysine conjugated to 7-diethylaminocoumarin-3-carboxylic acid (CK(DEAC)RKKRRQRRRG-NH2; also: disulfide dimer)”: in data set [3], the “d(X)TAT concentration at which delivery is achieved in a high percentage of cells” value was < 3 µM. In the case of “d(K(Fl))TAT: disulfide dimer of CXRKKRRQRRRG with X = lysine conjugated to carboxyfluorescein (CK(carboxyfluorescein)RKKRRQRRRG-NH2; also: disulfide dimer)”, the “d(X)TAT concentration at which delivery is achieved in a high percentage of cells” value in data set [3] is > 5 µM. On to “d(LL)TAT: disulfide dimer of CXRKKRRQRRRG with X = LL”, for which, in data set [3], the “d(X)TAT concentration at which delivery is achieved in a high percentage of cells” value was > 5 µM.

On to “d(W)TAT: disulfide dimer of CXRKKRRQRRRG with X = W (CWRKKRRQRRRG-NH2; also: disulfide dimer)”, for which the “TMR-k5 delivery activity” value in data set [3] is listed as “little to no TMR-k5 delivery is detected”. With “d(WW)TAT: disulfide dimer of CXRKKRRQRRRG with X = WW”, the “d(X)TAT concentration at which delivery is achieved in a high percentage of cells” value in data set [3] was < 3 µM. Further, in data set [2], the “lysotracker-positive puncta per cell 12 h after incubation” value is “restored to control level” and the “lysotracker stained endosomes (puncta per cell) immediately after incubation” value is “caused a reduction in lysotracker stained endosomes”. Moreover, in data set [4], the “cells with TMR-k5 delivery, EGFP-DN-rab7 transfected” value was determined as 20%; the “nuclear staining of delivered TMR-k5 in cells transfected with EGFP-DN-rab7” value is “markedly reduced”; the “cells positive for TMR-k5 nuclear staining in the presence of cytochalasin D” value is on record as “approximately 5%”; the “delivery of TMR-k5 in the presence of cytochalasin D” value is recorded as “significantly reduced”. Consider “d(Y)TAT: disulfide dimer of CXRKKRRQRRRG with X = Y (CYRKKRRQRRRG-NH2; also: disulfide dimer)”, for which the “TMR-k5 delivery activity” value in data set [3] is listed as “little to no TMR-k5 delivery is detected”. “d(YFIL)TAT: disulfide dimer of CXRKKRRQRRRG with X = YFIL”: the “d(X)TAT concentration at which delivery is achieved in a high percentage of cells” value in data set [3] was < 3 µM.
